Experimental data from article PMC5783306 (Nature, 2017).

T1: TAX-4 (Caenorhabditis elegans, UniProt Q03611)
T1 sequence (Q03611 1-733): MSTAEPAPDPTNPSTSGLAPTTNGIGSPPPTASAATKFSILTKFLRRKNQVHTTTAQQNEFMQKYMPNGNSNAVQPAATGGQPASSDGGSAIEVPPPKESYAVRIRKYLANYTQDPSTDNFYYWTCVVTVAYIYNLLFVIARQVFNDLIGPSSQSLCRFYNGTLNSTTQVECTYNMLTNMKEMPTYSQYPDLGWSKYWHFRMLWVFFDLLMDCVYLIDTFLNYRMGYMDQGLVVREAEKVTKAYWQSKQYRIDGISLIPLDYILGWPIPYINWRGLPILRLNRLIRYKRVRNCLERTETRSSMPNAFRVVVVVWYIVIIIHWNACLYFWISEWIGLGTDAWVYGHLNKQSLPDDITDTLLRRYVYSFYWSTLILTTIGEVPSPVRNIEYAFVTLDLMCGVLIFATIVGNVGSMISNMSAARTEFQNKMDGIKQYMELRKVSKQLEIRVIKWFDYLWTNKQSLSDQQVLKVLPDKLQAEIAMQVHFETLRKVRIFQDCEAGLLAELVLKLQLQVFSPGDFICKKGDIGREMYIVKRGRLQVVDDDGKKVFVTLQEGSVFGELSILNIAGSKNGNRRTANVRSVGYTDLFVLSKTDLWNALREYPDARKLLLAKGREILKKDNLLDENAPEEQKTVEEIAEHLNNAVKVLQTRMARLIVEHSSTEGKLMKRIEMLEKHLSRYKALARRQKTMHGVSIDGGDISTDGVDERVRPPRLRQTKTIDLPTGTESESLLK


Tests used:
TAX-4 = target: T1, TAX-4; experiment: cryo-EM structure at […] Å of cGMP-bound channel; format: cell-based
cryo-EM structure = target: the molecule itself; experiment: cryo-EM structure

EC50 (TAX-4) [nM] | Molecule | stoichiometry N (cryo-EM structure)
160 | Nc1nc2c(ncn2[C@@H]2O[C@@H]3COP(=O)(O)O[C@H]3[C@H]2O)c(=O)[nH]1 [cGMP] | –
– | TAX-4 (cyclic nucleotide-gated channel CNGA subunit from C. elegans), cGMP-bound (natural protein, UniProt Q03611 1-733, looked up) MSTAEPAPDPTNPSTSGLAPTTNGIGSPPPTASAATKFSILTKFLRRKNQVHTTTAQQNEFMQKYMPNGNSNAVQPAATGGQPASSDGGSAIEVPPPKESYAVRIRKYLANYTQDPSTDNFYYWTCVVTVAYIYNLLFVIARQVFNDLIGPSSQSLCRFYNGTLNSTTQVECTYNMLTNMKEMPTYSQYPDLGWSKYWHFRMLWVFFDLLMDCVYLIDTFLNYRMGYMDQGLVVREAEKVTKAYWQSKQYRIDGISLIPLDYILGWPIPYINWRGLPILRLNRLIRYKRVRNCLERTETRSSMPNAFRVVVVVWYIVIIIHWNACLYFWISEWIGLGTDAWVYGHLNKQSLPDDITDTLLRRYVYSFYWSTLILTTIGEVPSPVRNIEYAFVTLDLMCGVLIFATIVGNVGSMISNMSAARTEFQNKMDGIKQYMELRKVSKQLEIRVIKWFDYLWTNKQSLSDQQVLKVLPDKLQAEIAMQVHFETLRKVRIFQDCEAGLLAELVLKLQLQVFSPGDFICKKGDIGREMYIVKRGRLQVVDDDGKKVFVTLQEGSVFGELSILNIAGSKNGNRRTANVRSVGYTDLFVLSKTDLWNALREYPDARKLLLAKGREILKKDNLLDENAPEEQKTVEEIAEHLNNAVKVLQTRMARLIVEHSSTEGKLMKRIEMLEKHLSRYKALARRQKTMHGVSIDGGDISTDGVDERVRPPRLRQTKTIDLPTGTESESLLK | 4
